Assays:
MC38 colon carcinoma = assay: Subcutaneous MC38 colon carcinoma model, anti-4-1BB and avelumab (Example 3); assay type: in vivo; conditions: anti-4-1BB 0.1 mg/mL, avelumab 1 mg/mL, 0.2 mL per mouse ip, 3 doses 3 to 4 days apart, C57BL/6 mice
Description: Six (6)- to 8-week old female C57BL/6 mice were purchased from the Jackson Laboratories. All animals were housed in a pathogen free vivarium facility at Rinat and experiments were conducted according to the protocols in accordance with the Institutional Animal Care and Use Committee (IACUC) guidelines.
The B16F10 melanoma cell line was purchased from American Type Culture Collection (ATCC). The MC38 colon carcinoma cell line was kindly provided by Dr. Antoni Ribas at University of California, Los Angeles, Calif. Cells were cultured in Dulbecco's Modified Eagle's Medium (DMEM) supplemented with 10% fetal bovine serum (FBS), 2 mM L-glutamine at 37° C. in 5% carbon dioxide (CO2), and IMPACT-tested for pathogens at Research Animal Diagnostic Laboratory (RADIL) (Columbia, Mo.). Pathogen-free cells growing in an exponential growth phase were harvested and used for tumor inoculation.
Therapeutic mouse anti-mouse 4-1BB mAb (mouse immunoglobulin G1 [mIgG1]), derived from the parental clone MAB9371 (R&D Systems), was prepared in-house. Avelumab was provided by Merck Serono. Isotype control mIgG1 (clone: MOPC-21) was purchased from BioXcell. Human IgG1 was prepared in-house. Anti-4-1BB and avelumab were diluted to concentrations of 0.1 mg/mL and 1 mg/mL, respectively, in phosphate buffered saline (PBS) (Life Technologies), and dosed at 0.2 mL per mouse intraperitoneally (ip) for 3 doses 3 to 4 days apart.
(§1) C57BL/6 mice were inoculated subcutaneously at the right flank with 0.2×10^6 B16F10 or 0.5×10^6 MC38 cells in 0.1 mL of serum-free DMEM. When tumors reached target size, mice were randomized into treatment groups. Treatment was started on the same day as randomization. Tumor size was measured twice weekly in 2 dimensions using a caliper, and the volume was expressed in cubic millimeters using the formula: V=0.5 L×W^2 where L is the longest diameter of the tumor and W is the diameter perpendicular to L. Body weight was recorded weekly.
Results were expressed as mean±SEM. Statistical analyses were performed using GraphPad Prism 6.0. One-way or 2-way ANOVA was applied to compare the statistical differences among multiple groups relative to the isotype control. P<0.05 was considered as significant difference.
In the MC38 colon carcinoma model, the average starting tumor size was approximately 60 mm^3 (range 41-92 mm^3; n=10 animals per group) (Table 6). At the end of study (Day 23 post tumor implantation), the average tumor volumes of isotype, anti-4-1BB alone, avelumab alone, and anti-4-1BB antibody/avelumab combination groups were 1177±252 mm^3, 1093±183 mm^3, 901±206 mm^3, and 530±190 mm^3, respectively (Table 6). The reduction in tumor size by the combination treatment was significant, compared to the isotype control (p<0.001) and 4-1BB alone groups (p<0.01), but not to the avelumab group (p>0.05) (Table 6).

B16F10 melanoma = assay: Subcutaneous B16F10 melanoma model, avelumab, anti-4-1BB and anti-OX40 (Example 6); assay type: in vivo, mouse; conditions: anti-OX40 3 mg/kg, anti-4-1BB 1 mg/kg, avelumab 20 mg/kg, ip, 3 doses 3 to 4 days apart, C57BL/6 mice
Description: Two murine models were used to evaluate the therapeutic efficacy of combinatorial treatment of anti-OX40 antibody, anti-4-1 BB and Avelumab. Six (6)- to 8-week old female C57BL/6 mice or Balb/C mice were purchased from the Jackson Laboratories. All animals were housed in a pathogen free vivarium facility at Rinat and experiments were conducted according to the protocols in accordance with the Institutional Animal Care and Use Committee (IACUC) guidelines.
The B16F10 melanoma cell line was purchased from American Type Culture Collection (ATCC). The MC38 colon carcinoma cell line was kindly provided by Dr. Antoni Ribas at University of California, Los Angeles, Calif. Cells were cultured in Dulbecco's Modified Eagle's Medium (DMEM) supplemented with 10% fetal bovine serum (FBS), 2 mM L-glutamine at 37° C. in 5% carbon dioxide (CO2). Cells growing in an exponential growth phase were harvested and used for tumor inoculation.
Therapeutic mouse anti-OX40 antibodies with either the mIgG1 or the mIgG2a isotype (anti-OX40 mIgG1 and anti-OX40 mIgG2a, respectively) were derived from parental clone OX86 in house. Therapeutic mouse anti-mouse 4-1BB antibody (mouse immunoglobulin G1 [mIgG1]), derived from the parental clone MAB9371 (R&D Systems), was prepared in-house. Avelumab was provided by Merck Serono. Isotype control mIgG1 (clone: MOPC-21) and mIgG2a (C1.18.4) was purchased from BioXcell. Human IgG1 was prepared in-house. Anti-OX40 antibody, anti-4-1BB antibody, and avelumab were dosed at 3 mg/kg, 1 mg/kg and 20 mg/kg in the B16F10 model and 1 mg/kg, 1 mg/kg and 10 mg/kg in the MC38 model, respectively, in phosphate buffered saline (PBS) (Life Technologies), and dosed at 0.2 mL per mouse intraperitoneally (ip) for 3 doses 3 to 4 days apart.
as §1, with “with 0.3×10^6” for “with 0.2×10^6”, “B16F10 cells in 0.1 mL of PBS. Balb/C mice were inoculated subcutaneously at the right flank with” for “B16F10 or”, “of PBS.” for “of serum-free DMEM.”, “was calculated” for “was expressed”
Results are summarized in Table 9 (B16F10 melanoma) and Table 10 (MC38 colon carcinoma) below (mean tumor size±SEM). Statistical analyses were performed using GraphPad Prism 6.0. 2-way ANOVA was applied to compare the statistical differences among multiple groups relative to the isotype control or other treatment groups. P<0.05 was considered as significant difference. Tumor measurements are in mm^3.

Avelumab: fully human mAb of the IgG1 isotype that specifically targets and blocks PD-L1
Tumor Measurements of Subcutaneous MC38 Colon Carcinoma, Mean tumor volume (MC38 colon carcinoma; Day 7 post tumor implantation (starting tumor size)): 63 mm^3 | Tumor Measurements of Subcutaneous MC38 Colon Carcinoma, Mean tumor volume (MC38 colon carcinoma; Day 10 post tumor implantation): 127 mm^3 | Tumor Measurements of Subcutaneous MC38 Colon Carcinoma, Mean tumor volume (MC38 colon carcinoma; Day 14 post tumor implantation): 254 mm^3 | Tumor Measurements of Subcutaneous MC38 Colon Carcinoma, Mean tumor volume (MC38 colon carcinoma; Day 16 post tumor implantation): 384 mm^3 | Tumor Measurements of Subcutaneous MC38 Colon Carcinoma, Mean tumor volume (MC38 colon carcinoma; Day 18 post tumor implantation): 523 mm^3 | Tumor Measurements of Subcutaneous MC38 Colon Carcinoma, Mean tumor volume (MC38 colon carcinoma; Day 21 post tumor implantation): 714 mm^3 | Tumor Measurements of Subcutaneous MC38 Colon Carcinoma, Mean tumor volume (MC38 colon carcinoma; Day 23 post tumor implantation (end of study)): 901 mm^3 | Tumor Measurements of Subcutaneous MC38 Colon Carcinoma, Mean tumor volume (MC38 colon carcinoma; Day 23 post tumor implantation (end of study), listed as avelumab): 901±206 mm^3 | Mean Tumor Size (B16F10 melanoma; Day 12 post-tumor inoculation (start of treatment)): 77 mm^3 | Mean Tumor Size (B16F10 melanoma; Day 15 post-tumor inoculation): 236 mm^3 | Mean Tumor Size (B16F10 melanoma; Day 18 post-tumor inoculation): 396 mm^3 | Mean Tumor Size (B16F10 melanoma; Day 22 post-tumor inoculation): 750 mm^3 | Mean Tumor Size (B16F10 melanoma; Day 25 post-tumor inoculation): 1291 mm^3 | Mean Tumor Size (B16F10 melanoma; Day 29 post-tumor inoculation): 2159 mm^3 | Mean Tumor Size (B16F10 melanoma; Day 32 post-tumor inoculation): 2352 mm^3 | Mean Tumor Size (B16F10 melanoma; Day 32 post-tumor inoculation, listed as avelumab): 2352±264 mm^3

— patent publication US10869924B2, “PD-L1 antagonist combination treatments” (MERCK PATENT GMBH, priority 2015, dated 2020)
